From BigSolDB 2.1

C[C@]12C=CC(=O)C=C1CC[C@@H]1[C@@H]2[C@@H](O)C[C@@]2(C)[C@H]1CC[C@]2(O)C(=O)CO
solubility (mole fraction)
Settings	in DMF	in NMP	in acetonitrile	in n-dodecane	in n-hexadecane	in n-nonanol	in n-octanol	in n-pentanol	in sec-butanol	in water
293.2 K	0.00818	0.00465	0.00219	1.44e-05	2.15e-05	0.000507	0.000316	0.000283	0.000248	1.05e-05
298.2 K	0.00869	0.00525	0.00236	1.64e-05	2.35e-05	0.000643	0.000419	0.000358	0.000294	1.1e-05
303.2 K	0.00943	0.0061	0.00255	1.87e-05	2.61e-05	0.000833	0.000568	0.000449	0.000362	1.25e-05
308.2 K	0.0101	0.00688	0.0028	2.16e-05	3.01e-05	0.000999	0.000712	0.000559	0.000444	1.4e-05
313.2 K	0.0108	0.00784	0.00305	2.45e-05	3.4e-05	0.00126	0.000913	0.000699	0.00053	1.6e-05
318.2 K	0.0116	0.00881	0.00334	2.79e-05	3.88e-05	0.00151	0.00114	0.000881	0.000628	1.8e-05
323.2 K	0.0125	0.00998	0.00364	3.28e-05	4.5e-05	0.00179	0.00141	0.0011	0.00075	2e-05
328.2 K	0.0141	0.0114	0.00407	3.82e-05	5.41e-05	0.00215	0.0018	0.00139	0.000905	2.6e-05
